From patent US11976083B2, “Inhibitors of peptidylarginine deiminases” (Gilead Sciences, Inc., priority 2020, dated 2024) come the findings set out here.

In this test the target is T1, human PAD4 (Homo sapiens, UniProt Q9UM07).
T1 construct: human PAD4 (NM_012387), A2-P663, was PCR amplified; His-SUMO (N, cleaved yes); made in house; host or cells: E. coli BL21(DE3)
Kind of test: In vitro PAD4 BAEE biochemical assay. To be noted: BAEE substrate 3 mM, 5 nM PAD4, 2 mM calcium chloride; geometric mean of multiple experiments. In short, it runs like this: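 Ammonia produced by BAEE deimination (3 mM substrate, 2 h, 25 °C) was read as fluorescent isoindole after o-phthalaldehyde/DTT derivatization, ex 405 nm/em 535 nm. Human PAD4 at 5 nM final, 2 mM calcium, pH 7.6 MOPS; compound preincubated 30 min. IC50s, normalized to BB-Cl-Amidine and DMSO controls, were geometric-mean averaged.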

T1 sequence (Q9UM07 2-663): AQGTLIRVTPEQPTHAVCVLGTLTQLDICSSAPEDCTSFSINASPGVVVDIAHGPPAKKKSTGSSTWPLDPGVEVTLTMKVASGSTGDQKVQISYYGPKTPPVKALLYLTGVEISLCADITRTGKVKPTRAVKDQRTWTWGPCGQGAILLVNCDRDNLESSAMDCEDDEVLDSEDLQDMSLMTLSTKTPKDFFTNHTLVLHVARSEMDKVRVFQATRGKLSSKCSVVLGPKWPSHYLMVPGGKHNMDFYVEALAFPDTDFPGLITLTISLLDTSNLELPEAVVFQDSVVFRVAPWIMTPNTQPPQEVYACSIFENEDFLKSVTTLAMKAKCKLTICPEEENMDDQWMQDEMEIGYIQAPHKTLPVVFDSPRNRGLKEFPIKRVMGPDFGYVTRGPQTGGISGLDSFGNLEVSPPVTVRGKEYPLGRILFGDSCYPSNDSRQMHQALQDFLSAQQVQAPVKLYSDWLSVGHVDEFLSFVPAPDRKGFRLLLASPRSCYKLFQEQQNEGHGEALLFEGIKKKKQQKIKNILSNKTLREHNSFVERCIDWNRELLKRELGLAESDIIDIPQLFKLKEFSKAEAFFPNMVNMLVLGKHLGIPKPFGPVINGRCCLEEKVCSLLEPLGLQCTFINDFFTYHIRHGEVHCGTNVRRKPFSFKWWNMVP

In the case of `CC(C)n1c(-c2cc3ccc4nc3n2CCCCCc2nc(Cl)ccc2C(=O)N[C@@H]4C)nc2cc(C(=O)N3C[C@H](N)[C@@H]4CC[C@H]3C4)cc(F)c21` [Example 946, (2~{R})-17-[5-[(1~{S},4~ {R},5~{R})-4-amino-2-azabicyclo [3.2.1]octane-2-carbonyl]-7-fluoro-1-isopropyl-benzimidazol-2-yl]-8-chloro-2-methyl-3,9,16,22-tetrazatetracyclo[14.5.2.0^ {5,10}.0^{19,23}]tricosa-1(22),5(10),6,8,17,19(23),20-heptaen-4-one], the IC50 (as a rule, the concentration at which inhibition is half-maximal) is 69 nM.

For `C[C@@H]1[C@H](N)CCCN1C(=O)c1cc(F)c2c(c1)nc(-c1cc3ccc4nc3n1CCCCCc1nc(Cl)ccc1C(=O)N[C@@H]4C)n2C1CC1` [Example 790, (2~{R})-17-[5-[(2~{R},3~{R})-3-amino-2-methyl-piperidine-1-carbonyl]-1-cyclopropyl-7-fluoro-benzimidazol-2-yl]-8-chloro-2-methyl-3,9,16,22-tetrazatetracyclo[14.5.2.0^ {5,10}.0^{19,23}]tricosa-1(21),5(10),6,8,17,19,22-heptaen-4-one], the half-inhibitory concentration (IC50) was found to be 23 nM.

In the case of `COc1cc(C(=O)N2CCC[C@@H](N)C2)cc2nc(-c3cc4ccc5nc4n3C[C@@H]3C[C@H]3C(OC)CCCC(=O)N[C@@H]5C)n(C)c12` (some centres unmarked) [Example 270, (3~{R},5~{R},12~{R})-18-[5-[(3~{R})-3-aminopiperidine-1-carbonyl]-7-methoxy-1-methyl-benzimidazol-2-yl]-6-methoxy-12-methyl-1,11,20-triazatetracyclo[11.5.2.0^{3,5}.0^{16,19}] icosa-13(20),14,16(19),17-tetraen-10-one], the IC50 came out at 90 nM.

Consider `COc1cc(C(=O)N2CC[C@@H](OC(F)F)[C@@H](N)C2)cc2nc(-c3cc4ccc5nc4n3CCCCCCC3(COC3)C(=O)N[C@@H]5C)n(C)c12` [Example 613, (11~{R})-17-[5-[(3~{S},4~{R})-3-amino-4-(difluoromethoxy)piperidine-1-carbonyl]-7-methoxy-1-methyl-benzimidazol-2-yl]-11-methyl-spiro[1,10,19-triazatricyclo[10.5.2.0^ {15,18}]nonadeca-12,14,16,18-tetraene-8,3′-oxetane]-9-one], for which the half-maximal inhibitory concentration (IC50) worked out at 108 nM.

Turning to `COc1ccc2c(n1)CCCCCn1c(-c3nc4cc(C(=O)N5C[C@H](N)[C@@H]6CC[C@H]5C6)cc(F)c4n3C3CC3)cc3ccc(nc31)[C@@H](C)NC2=O` [Example 685, (2~{R})-17-[5-[(1~{S},4~{R}, 5~{R})-4-amino-2-azabicyclo[3.2.1]octane-2-carbonyl]-1-cyclopropyl-7-fluoro-benzimidazol-2-yl]-8-methoxy-2-methyl-3,9,16,22-tetrazatetracyclo [14.5.2.0^{5,10}.0^{19, 23}]tricosa-1(22),5(10), 6,8,17,19(23),20-heptaen-4-one], the IC50 is 13 nM.

Take `COc1cc(C(=O)N2C[C@H](N)[C@@H]3CC[C@H]2C3)cc2nc(-c3cc4ccc5nc4n3CCCCCc3ccccc3C(=O)N[C@@H]5C)n(C3CC3)c12` [Example 673, (2~{R})-17-[5-[(1~{S},4~ {R},5~{R})-4-amino-2-azabicyclo[3.2.1]octane-2-carbonyl]-1-cyclopropyl-7-methoxy-benzimidazol-2-yl]-2-methyl-3,16,22-triazatetracyclo[14.5.2.0^ {5,10}.0^{19,23}] tricosa-1(22),5(10),6,8, 17,19(23),20-heptaen-4-one]: the IC50 was found to be 27 nM.

On to `COc1cc(C(=O)N[C@H]2CNCC[C@@H]2F)cc2nc(-c3cc4ccc5nc4n3CC(F)(F)CCCCC(C)(C)C(=O)N[C@@H]5C)n(C)c12` [Example 594, 2-[(11~{R})-3,3-difluoro-8,8,11-trimethyl-9-oxo-1,10,19-triazatricyclo [10.5.2.0^{15,18}]nonadeca-12,14,16,18-tetraen-17-yl]-~ {N}-[(3~{S},4~{S})-4-fluoro-3-piperidyl]-7-methoxy-1-methyl-benzimidazole-5-carboxamide], for which the IC50 came to 112 nM.

As to `C[C@H]1NC(=O)[C@@H]2C[C@H]2CCCC(F)(F)Cn2c(-c3nc4cc(C(=O)N5C[C@H](N)[C@@H]6CC[C@H]5C6)cc(F)c4n3[C@@H]3C[C@H]3C(F)F)cc3ccc1nc32` [Example 454, (2~{R},5~{R},7~{R})-14-[5-[(1~{S),4~{R},5~{R})-4-amino-2-azabicycło[3.2.1]octane-2-carbonyl]-1-[(1~{R},2~{R})-2-(difluoromethyl)cyclopropyl]-7-fluoro-benzimidazol-2-yl]-11,11-difluoro-2-methyl-3,13,19-triazatetracyclo[11.5.2.0^{5,7}.0^{16,20}] icosa-1(19),14,16(20),17-tetraen-4-one], the IC50 was found to be 31 nM.

Turning to `C[C@H]1NC(=O)[C@@H]2C[C@H]2CCCC(F)(F)Cn2c(-c3nc4cc(C(=O)N5C[C@H](N)[C@@H]6CC[C@H]5C6)cc(F)c4n3[C@H]3C[C@@H]3C(F)F)cc3ccc1nc32` (single isomer, unassigned) [Example 453, (2~{R},5~{R},7~{R})-14-[5-[(1~{S},4~{R},5~{R})-4-amino-2-azabicyclo[3.2.1]octane-2-carbonyl]-1-[(1~{S},2~{S})-2-(difluoromethyl)cyclopropyl]-7-fluoro-benzimidazol-2-yl]-11,11-difluoro-2-methyl-3,13,19-triazatetracyclo[11.5.2.0^{5,7}.0^{16,20}] icosa-1(19),14,16(20),17-tetraen-4-one], the half-maximal inhibitory concentration (IC50) worked out at 53 nM.

Regarding `C[C@H]1NC(=O)[C@@H]2[C@@H](CCCC(F)(F)Cn3c(-c4nc5cc(C(=O)N[C@H]6CNCC[C@@H]6F)c(F)cc5n4C)cc4ccc1nc43)C2(F)F` [Example 377, 6-fluoro-~{N}-[(3~{S},4~{S})-4-fluoro-3-piperidyl]-1-methyl-2-[(2~{R},5~{S},7~{R})-6,6,11,11-tetrafluoro-2-methyl-4-oxo-3,13,19-triazatetracyclo[11.5.2.0^{5,7}.0^{16,20}]icosa-1(19),14,16(20),17-tetraen-14-yl]benzimidazole-5-carboxamide], the IC50 is 32 nM.

For the compound `C[C@H]1NC(=O)[C@@H]2C[C@H]2CCCCCn2c(-c3nc4cc(C(=O)N[C@H]5CNCC[C@@H]5F)c(F)cc4n3CCC#N)cc3ccc1nc32` [Example 426, 1-(2-cyanoethyl)-6-fluoro-~{N}-[(3~{S},4~{S})-4-fluoro-3-piperidyl]-2-[(2~{R},5~{R},7~{R})-2-methyl-4-oxo-3,13,19-triazatetracyclo[11.5.2.0^{5,7}.0^{16,20}]icosa-1(19),14,16(20),17-tetraen-14-yl]benzimidazole-5-carboxamide], the IC50 was 25 nM.

For the compound `COc1cc(C(=O)N2C[C@H](N)C[C@@H](F)[C@@H]2C)cc2nc(-c3cc4ccc5nc4n3CCCCCCC(C)(C)C(=O)N[C@@H]5C)n(C)c12` [Example 795, (11~{R})-17-[5-[(2~{S),3~{R},5~ {R})-5-amino-3-fluoro-2-methyl-piperidine-1-carbonyl]-7-methoxy-1-methyl-benzimidazol-2-yl]-8,8,11-trimethyl-1,10,19-triazatricyclo[10.5.2.0^ {15,18}]nonadeca-12,14,16,18-tetraen-9-one], the half-maximal inhibitory concentration (IC50) was found to be 661 nM.

As for `COc1cc(C(=O)N2[C@H]3CC[C@@H]2[C@H](N)C3)cc2nc(-c3cc4ccc5nc4n3CCCCCC[C@H](OC)C(=O)N[C@@H]5C)c(C)n12` (single isomer, unassigned) [Example 335, (8˜{S},11˜{R})-17-[7-[(1˜{R},2˜{R},4˜{S})-2-amino-7-azabicyclo[2.2.1]heptane-7-carbonyl]-5-methoxy-3-methyl-imidazo[1,2-a]pyridin-2-yl]-8-methoxy-11-methyl-1,10,19-triazatricyclo[10.5.2.0^{15,18}]nonadeca-12(19),13,15(18),16-tetraen-9-one], the half-inhibitory concentration (IC50) was 32 nM.

Take `COc1cc(C(=O)N[C@H]2CNCC[C@@H]2F)cc2nc(-c3cc4ccc5nc4n3CCCCCc3ccccc3C(=O)N[C@@H]5C)n(C)c12` [Example 31, ~{N}-[(3~{S},4~{S})-4-fluoro-3-piperidyl]-7-methoxy-1-methyl-2-[(2~{R})-2-methyl-4-oxo-3,16,22-triazatetracyclo[14.5.2.0^{5,10}.0^{19,23}]tricosa-1(22),5,7,9,17,19(23),20-heptaen-17-yl]benzimidazole-5-carboxamide]: the IC50 was determined as 81 nM.

`COc1cc(C(=O)N2CCC[C@@H](N)C2)cc2nc(-c3cc4ccc5nc4n3CCCCCCCN(C)C(=O)N[C@@H]5C)c(C)n12` [Example 146, (12~{R})-18-[7-[(3~{R})-3-aminopiperidine-1-carbonyl]-5-methoxy-3-methyl-imidazo[1,2-a]pyridin-2-yl]-9,12-dimethyl-1,9,11,20-tetrazatricyclo[11.5.2.0^{16,19}]icosa-13(20),14,16(19),17-tetraen-10-one]: the 50% inhibitory concentration (IC50) amounted to 47 nM.

Take `COc1cc(C(=O)N2C[C@H](N)[C@@H]3CC[C@H]2C3)cc2nc(-c3cc4ccc5nc4n3CCCCCc3c(ccc(Cl)c3F)C(=O)N[C@@H]5C)n(C)c12` [Example 898, (2~{R})-17-[5-[(1~{S},4~{R},5~ {R})-4-amino-2-azabicyclo [3.2.1]octane-2-carbonyl]-7-methoxy-1-methyl-benzimidazol-2-yl]-8-chloro-9-fluoro-2-methyl-3,16,22-triazatetracyclo[14.5.2.0^ {5,10}.0^{19,23}]tricosa-1(22),5(10),6,8,17,19(23),20-heptaen-4-one]: the concentration for half-maximal inhibition (IC50) amounted to 156 nM.

In the case of `C[C@H]1NC(=O)[C@@H]2C[C@H]2CCCCCn2c(-c3nc4cc(C(=O)N[C@H]5CNCC[C@@H]5F)c(F)cc4n3[C@H]3C[C@H]3C(F)F)cc3ccc1nc32` (single isomer, unassigned) [Example 412, 1-[(1~{S},2~{R})-2-(difluoromethyl)cyclopropyl]-6-fluoro-~ {N}-[(3~{S),4~{S})-4-fluoro-3-piperidyl]-2-[(2~{R},5~{R},7~{R})-2-methyl-4-oxo-3,13,19-triazatetracyclo[11.5.2.0^{5,7}.0^{16,20}]icosa-1(19),14,16(20),17-tetraen-14-yl]benzimidazole-5-carboxamide], the IC50 amounted to 42 nM.
